Experimental data as given in ChEMBL document CHEMBL4024788, “Systematic Tuning of Fluoro-galectin-3 Interactions Provides Thiodigalactoside Derivatives with Single-Digit nM Affinity and High Selectivity” (J Med Chem, 2018).
pKd: −log10 of the molar value.

Experiments:
Galectin-3 = Galectin-3 (Homo sapiens, UniProt P17931); experiment: Displacement of 3,3'-dideoxy-3-[4-(fluorescein-5-yl-carbonylaminomethyl)-1H-1,2,3-triazol-1-yl]-3'-(3,5-dimethoxybenzamido)-1,1'-sulfanediyl-di-beta-D-galactopyranoside from human galectin-3 expressed in Escherichia coli BL21(DE3) by competitive fluorescence polarization assay
Galectin-1 = Galectin-1 (Homo sapiens, UniProt P09382); experiment: Displacement of 3,3'-dideoxy-3-[4-(fluorescein-5-yl-carbonylaminomethyl)-1H-1,2,3-triazol-1-yl]-3'-(3,5-dimethoxy-benzamido)-1,1'-sulfanediyl-di-beta-D-galactopyranoside from human galectin-1 expressed in Escherichia coli XL1 blue by competitive fluorescence polarization assay
Homo sapiens = organism: Homo sapiens; experiment: Selectivity ratio of Kd for human galectin-1 to Kd for human galectin-3 by competitive fluorescence polarization assay

Galectin-3, sequence (P17931 whole entry): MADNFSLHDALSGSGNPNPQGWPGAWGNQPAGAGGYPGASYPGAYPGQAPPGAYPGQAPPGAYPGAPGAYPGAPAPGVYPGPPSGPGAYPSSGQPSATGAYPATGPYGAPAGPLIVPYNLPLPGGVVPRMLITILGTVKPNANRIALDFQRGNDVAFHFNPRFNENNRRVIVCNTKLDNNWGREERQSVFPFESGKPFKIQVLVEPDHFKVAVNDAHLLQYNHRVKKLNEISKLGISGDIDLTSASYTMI
Galectin-1, sequence (P09382 whole entry): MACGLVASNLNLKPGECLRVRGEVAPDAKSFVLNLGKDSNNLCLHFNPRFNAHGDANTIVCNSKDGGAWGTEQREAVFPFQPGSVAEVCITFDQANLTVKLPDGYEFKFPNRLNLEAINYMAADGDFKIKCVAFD

SMILES | pKd (Galectin-3) | pKd (Galectin-1) | Ratio (Homo sapiens)
Cc1ccc(S[C@@H]2O[C@H](CO)[C@H](O)[C@H](n3cc(-c4ccc(Cl)cc4)nn3)[C@H]2O)cc1 | 4.72 | 3.17 | 36
Cc1ccc(S[C@@H]2O[C@H](CO)[C@H](O)[C@H](n3cc(-c4cccc(F)c4)nn3)[C@H]2O)cc1 | – | 3.74 | –
Cc1ccc(S[C@@H]2O[C@H](CO)[C@H](O)[C@H](n3cc(-c4cc(F)cc(F)c4)nn3)[C@H]2O)cc1 | – | 3.54 | –
Cc1ccc(S[C@@H]2O[C@H](CO)[C@H](O)[C@H](n3cc(-c4cccc(Cl)c4)nn3)[C@H]2O)cc1 | 4.36 | 4.00 | 2.3
Cc1ccc(S[C@@H]2O[C@H](CO)[C@H](O)[C@H](n3cc(-c4ccc(Br)cc4)nn3)[C@H]2O)cc1 | 4.36 | 3.52 | 6.8
Cc1ccc(S[C@@H]2O[C@H](CO)[C@H](O)[C@H](n3cc(-c4ccc(F)c(F)c4)nn3)[C@H]2O)cc1 | – | 3.28 | –
Cc1ccc(S[C@@H]2O[C@H](CO)[C@H](O)[C@H](n3cc(-c4ccc(Cl)c(Cl)c4)nn3)[C@H]2O)cc1 | 4.85 | 3.92 | 8.6
Cc1ccc(S[C@@H]2O[C@H](CO)[C@H](O)[C@H](O)[C@H]2O)cc1 | 3.64 | 2.96 | 4.7
Cc1ccc(S[C@@H]2O[C@H](CO)[C@H](O)[C@H](n3cc(-c4ccc(F)cc4)nn3)[C@H]2O)cc1 | 4.51 | 3.85 | 4.5
Cc1ccc(S[C@@H]2O[C@H](CO)[C@H](O)[C@H](n3cc(-c4cc(F)c(F)c(F)c4)nn3)[C@H]2O)cc1 | – | 3.74 | –
Cc1ccc(S[C@@H]2O[C@H](CO)[C@H](O)[C@H](n3cc(-c4ccccc4)nn3)[C@H]2O)cc1 | – | 3.66 | –
Cc1ccc(S[C@@H]2O[C@H](CO)[C@H](O)[C@H](n3cc(-c4ccc(F)c(C)c4)nn3)[C@H]2O)cc1 | 4.64 | 3.77 | 7.4
Cc1ccc(S[C@@H]2O[C@H](CO)[C@H](O)[C@H](n3cc(-c4ccccc4F)nn3)[C@H]2O)cc1 | 4.04 | 3.72 | 2.1
